# Measurements from PMC8624998, “Synthesis and Antiproliferative Evaluation of 3-Chloroazetidin-2-ones with Antimitotic Activity: Heterocyclic Bridged Analogues of Combretastatin A-4” (Pharmaceuticals, 2021).
# Like-named read-outs stand apart in the source and are kept apart here.
# Tests used:
# MCF-7 cells = test: Lactate dehydrogenase (LDH) assay for cytotoxicity; format: cell-based; settings: Homo sapiens, MCF7; MCF-7, compound concentration 10 μM, 24 h; read-out: Lactate Dehydrogenase assay: % cell lysis (cell death)
# Protocol: The toxicity and selectivity of 10n towards normal cells was investigated in the non-tumourigenic cell line HEK-293T (normal human epithelial embryonic kidney cells). […] The cytotoxic effect of selected 3-chloro-β-lactams 10e, 10f, 10i, 10n and 3,3-dichloro-β-lactams 11e and 11n in MCF-7 cells was initially determined using the lactate dehydrogenase (LDH) assay.
# The cytotoxicity of selected compounds was determined using the CytoTox 96 non-radioactive cytotoxicity assay (Promega Corporation, Madison, WI, USA). Briefly, MCF-7 cells were seeded in a 96-well plate (200 μL per well), at a density of 2.5 × 10^4 cells/mL, and incubated for 24 h. The cells were then treated with selected β-lactam compounds as described above for the cell viability assay. […] Supernatant (50 μL) was removed from each well to a 96-well plate. Reconstituted ‘CytoTox 96® Reagent (50 μL) was added to each well and the plate was placed in the dark at 20 °C for 30 min. ‘Stop solution’ (50 μL) was added to each well and the samples were analysed at 490 nm using a Dynatech MR5000 plate reader. The percentage cell death at 10 μM was calculated.
# LOX IMV1 = test: NCI-60 5 dose screen, Melanoma; format: cell-based; settings: Homo sapiens
# HCT-116 = test: NCI-60 5 dose screen, Colon Cancer; format: cell-based; settings: Homo sapiens
# SNB-75 = test: NCI-60 5 dose screen, CNS Cancer; format: cell-based; settings: Homo sapiens
# MDA-MB-468 = test: NCI-60 5 dose screen, Breast Cancer; format: cell-based; settings: Homo sapiens
# OVCAR-3 = test: NCI-60 5 dose screen, Ovarian Cancer; format: cell-based; settings: Homo sapiens
# MDA-MB-435 = test: NCI-60 5 dose screen, Melanoma; format: cell-based; settings: Homo sapiens
# KM12 = test: NCI-60 5 dose screen, Colon Cancer; format: cell-based; settings: Homo sapiens
# HOP-62 = test: NCI-60 5 dose screen, NSC Lung Cancer; format: cell-based; settings: Homo sapiens
# COLO205 = test: NCI-60 5 dose screen, Colon Cancer; format: cell-based; settings: Homo sapiens, COLO 205
# [1] = system: purified bovine brain tubulin; test: In vitro tubulin polymerisation assay; settings: for Fold-Reduction of Vmax of tubulin polymerisation: 10 µM; for Vmax at 10 µM: 10 µM compound, tubulin 3 mg/mL, vehicle 0.0069
# NCI/ADR-RES = test: NCI-60 5 dose screen, Ovarian Cancer; format: cell-based; settings: Homo sapiens
# MDA-MB-231/ATCC = test: NCI-60 5 dose screen, Breast Cancer; format: cell-based; settings: Homo sapiens
# MALME-3M = test: NCI-60 5 dose screen, Melanoma; format: cell-based; settings: Homo sapiens
# UACC-62 = test: NCI-60 5 dose screen, Melanoma; format: cell-based; settings: Homo sapiens
# NCI-H226 = test: NCI-60 5 dose screen, NSC Lung Cancer; format: cell-based; settings: Homo sapiens
# HCT-15 = test: NCI-60 5 dose screen, Colon Cancer; format: cell-based; settings: Homo sapiens
# M14 = test: NCI-60 5 dose screen, Melanoma; format: cell-based; settings: Homo sapiens
# BT-549 = test: NCI-60 5 dose screen, Breast Cancer; format: cell-based; settings: Homo sapiens
# EKVX = test: NCI-60 5 dose screen, NSC Lung Cancer; format: cell-based; settings: Homo sapiens
# T-47D = test: NCI-60 5 dose screen, Breast Cancer; format: cell-based; settings: Homo sapiens, T47D
# NCI-H460 = test: NCI-60 5 dose screen, NSC Lung Cancer; format: cell-based; settings: Homo sapiens
# TK-10 = test: NCI-60 5 dose screen, Renal Cancer; format: cell-based; settings: Homo sapiens
# SK-MEL-2 = test: NCI-60 5 dose screen, Melanoma; format: cell-based; settings: Homo sapiens
# HS 578T = test: NCI-60 5 dose screen, Breast Cancer; format: cell-based; settings: Homo sapiens
# [2] = MDA-MB-231/ATCC, read-out: GI50
smiles,measurement,setting,value
"COc1ccc(C2C(Cl)C(=O)N2c2cc(OC)c(OC)c(OC)c2)cc1O (stereo not drawn) [Compound 10n, 3-Chloro-4-(3-hydroxy-4-methoxy-phenyl)-1-(3,4,5-trimethoxyphenyl)azetidin-2-one]",cytotoxicity at 10 µM,MCF-7 cells,17%
"COc1ccc(C2N(c3cc(OC)c(OC)c(OC)c3)C(=O)C2(Cl)Cl)cc1O (stereo not drawn) [Compound 11n, 3,3-Dichloro-4-(3-hydroxy-4-methoxyphenyl)-1-(3,4,5-trimethoxyphenyl)azetidin-2-one]",GI50,LOX IMV1,41.5 nM
same,GI50,HCT-116,32.8 nM
same,GI50,SNB-75,19.9 nM
same,GI50,MDA-MB-468,22.6 nM
same,GI50,OVCAR-3,24.4 nM
same,GI50,MDA-MB-435,20.2 nM
same,GI50,KM12,31.8 nM
same,GI50,HOP-62,35 nM
same,GI50,COLO205,2910 nM
same,Fold-Reduction of Vmax of tubulin polymerisation,[1],1.7 fold
same,Vmax at 10 µM,[1],0.0041 mOD/min
same,GI50,NCI/ADR-RES,26.5 nM
same,cytotoxicity at 10 µM,MCF-7 cells,8%
same,GI50,MDA-MB-231/ATCC; MDA-MB-231,31.6 nM
same,GI50,MALME-3M,68.5 nM
same,GI50,UACC-62,42.2 nM
same,GI50,NCI-H226,36.8 nM
same,GI50,HCT-15,38.3 nM
same,GI50,M14,31.3 nM
same,GI50,BT-549,39.7 nM
same,GI50,EKVX,46.4 nM
same,GI50,T-47D,11600 nM
same,GI50,NCI-H460,35.4 nM
same,GI50,TK-10,126 nM
same,GI50,SK-MEL-2,31.6 nM
same,GI50,HS 578T; Hs-578T,42.8 nM
"COc1ccc(/C=C\c2cc(OC)c(OC)c(OC)c2)cc1O [CA-4, Combretastatin A-4]",Vmax at 10 µM,[1],0.0022 mOD/min
same,cytotoxicity at 10 µM,MCF-7 cells,12%
"COc1ccc([C@H]2[C@H](Cl)C(=O)N2c2cc(OC)c(OC)c(OC)c2)cc1 (relative stereo) [Compound 10e trans, Trans-3-chloro-1-(3,4,5-trimethoxyphenyl)-4-(4-methoxyphenyl) azetidin-2-one]",GI50,LOX IMV1; read-out: GI50,67.6 nM
same,GI50,HCT-116; read-out: GI50,39.7 nM
same,GI50,SNB-75; read-out: GI50,38.2 nM
same,GI50,MDA-MB-468; read-out: GI50,50.8 nM
same,GI50,OVCAR-3; read-out: GI50,24.1 nM
same,GI50,MDA-MB-435; read-out: GI50,22.6 nM
same,GI50,KM12; read-out: GI50,39.3 nM
same,GI50,HOP-62; read-out: GI50,53.8 nM
same,GI50,"COLO205; COLO205, read-out: GI50",49.2 nM
same,Fold-Reduction of Vmax of tubulin polymerisation,[1],1.8 fold
same,Vmax at 10 µM,[1],0.0039 mOD/min
same,GI50,NCI/ADR-RES; read-out: GI50,35.3 nM
same,cytotoxicity at 10 µM,MCF-7 cells,5%
same,GI50,MDA-MB-231/ATCC; [2],68.6 nM
same,GI50,MALME-3M; read-out: GI50,88.4 nM
same,GI50,UACC-62; read-out: GI50,51.8 nM
same,GI50,NCI-H226; read-out: GI50,55.7 nM
same,GI50,HCT-15; read-out: GI50,50.4 nM
same,GI50,M14; read-out: GI50,39.6 nM
same,GI50,BT-549; read-out: GI50,174 nM
same,GI50,EKVX; read-out: GI50,69.4 nM
same,GI50,"T-47D; T-47D, read-out: GI50",15800 nM
same,GI50,NCI-H460; read-out: GI50,306 nM
same,GI50,TK-10; read-out: GI50,92.2 nM
same,GI50,SK-MEL-2; read-out: GI50,45 nM
same,GI50,"HS 578T; HS 578T, read-out: GI50",55.3 nM
"CCSc1ccc(C2C(Br)C(=O)N2c2cc(OC)c(OC)c(OC)c2)cc1 (stereo not drawn) [Compound 16d, 3-Bromo-4-(4-(ethylthio)phenyl)-1-(3,4,5-trimethoxyphenyl)azetidin-2-one]",GI50,LOX IMV1; read-out: GI50,834 nM
same,GI50,HCT-116; read-out: GI50,222 nM
same,GI50,SNB-75; read-out: GI50,509 nM
same,GI50,MDA-MB-468; read-out: GI50,154 nM
same,GI50,OVCAR-3; read-out: GI50,109 nM
same,GI50,MDA-MB-435; read-out: GI50,37.7 nM
same,GI50,KM12; read-out: GI50,202 nM
same,GI50,HOP-62; read-out: GI50,336 nM
same,GI50,"COLO205; COLO205, read-out: GI50",230 nM
same,GI50,NCI/ADR-RES; read-out: GI50,125 nM
same,GI50,MDA-MB-231/ATCC; [2],488 nM
same,GI50,MALME-3M; read-out: GI50,11300 nM
same,GI50,UACC-62; read-out: GI50,97.2 nM
same,GI50,NCI-H226; read-out: GI50,3110 nM
same,GI50,HCT-15; read-out: GI50,210 nM
same,GI50,M14; read-out: GI50,128 nM
same,GI50,BT-549; read-out: GI50,525 nM
same,GI50,EKVX; read-out: GI50,639 nM
same,GI50,"T-47D; T-47D, read-out: GI50",16900 nM
same,GI50,NCI-H460; read-out: GI50,539 nM
same,GI50,TK-10; read-out: GI50,14300 nM
same,GI50,SK-MEL-2; read-out: GI50,484 nM
same,GI50,"HS 578T; HS 578T, read-out: GI50",229 nM
